According to patent US7888386B2, “3-(phenoxyphenylmethyl)pyrrolidine compounds” (Theravance, Inc., priority 2008, dated 2011):
Like-named read-outs stand apart in the source and are kept apart here.

What was measured:
hNET = target: T1, hNET (Homo sapiens, UniProt P23975); assay: hNET binding assay (Assay 1); settings: read-out: NET pKi (converted)
T1 construct: expressed in transfected cells; host or cells: HEK-293 derived cell line, stably transfected; membrane preparation
In short: (§1)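 Membranes from HEK-293 cells stably expressing human NET or SERT competed test compound against ^3H-nisoxetine (hNET) or ^3H-citalopram (hSERT). Buffer was 50 mM Tris-HCl pH 7.4, 120 mM NaCl, 5 mM KCl, 0.1% BSA and 400 μM ascorbic acid.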

hSERT = target: T2, hSERT (Homo sapiens, UniProt P31645); assay: hSERT binding assay (Assay 1)
T2 construct: expressed in transfected cells; host or cells: HEK-293 derived cell line, stably transfected; membrane preparation
T2 sequence (P31645 whole entry): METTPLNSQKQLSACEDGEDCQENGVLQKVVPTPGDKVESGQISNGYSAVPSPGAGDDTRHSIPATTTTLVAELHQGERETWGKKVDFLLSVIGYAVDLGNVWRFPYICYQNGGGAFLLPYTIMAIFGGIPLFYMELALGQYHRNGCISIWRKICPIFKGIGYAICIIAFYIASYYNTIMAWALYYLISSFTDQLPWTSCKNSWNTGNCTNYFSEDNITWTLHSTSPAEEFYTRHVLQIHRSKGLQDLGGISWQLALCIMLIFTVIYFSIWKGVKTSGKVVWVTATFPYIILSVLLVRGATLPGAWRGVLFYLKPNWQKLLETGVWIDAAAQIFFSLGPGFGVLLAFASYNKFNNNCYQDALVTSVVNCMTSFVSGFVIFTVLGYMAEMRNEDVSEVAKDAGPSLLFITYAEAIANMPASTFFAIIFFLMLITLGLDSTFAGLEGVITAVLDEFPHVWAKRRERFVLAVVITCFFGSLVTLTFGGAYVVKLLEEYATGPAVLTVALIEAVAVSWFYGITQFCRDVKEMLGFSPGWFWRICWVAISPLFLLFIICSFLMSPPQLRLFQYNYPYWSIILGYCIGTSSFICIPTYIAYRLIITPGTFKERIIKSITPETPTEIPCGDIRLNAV
In short: as §1

[1] = ratio of SERT Ki to NET Ki (binding)
[2] = membranes of HEK-293 cells expressing hNET, 1.0 nM 3H-nisoxetine
[3] = ratio of binding Ki at hSERT to Ki at hNET, rounded off to the nearest tenth
[4] = ratio of SERT Ki to NET Ki from binding assays
[5] = hNET binding, the tables list only compounds with NET pKi≧8
[6] = ratio of binding Ki at SERT to Ki at NET, the tables list only compounds with a ratio in the range 0.1-100

T1 sequence (P23975 whole entry): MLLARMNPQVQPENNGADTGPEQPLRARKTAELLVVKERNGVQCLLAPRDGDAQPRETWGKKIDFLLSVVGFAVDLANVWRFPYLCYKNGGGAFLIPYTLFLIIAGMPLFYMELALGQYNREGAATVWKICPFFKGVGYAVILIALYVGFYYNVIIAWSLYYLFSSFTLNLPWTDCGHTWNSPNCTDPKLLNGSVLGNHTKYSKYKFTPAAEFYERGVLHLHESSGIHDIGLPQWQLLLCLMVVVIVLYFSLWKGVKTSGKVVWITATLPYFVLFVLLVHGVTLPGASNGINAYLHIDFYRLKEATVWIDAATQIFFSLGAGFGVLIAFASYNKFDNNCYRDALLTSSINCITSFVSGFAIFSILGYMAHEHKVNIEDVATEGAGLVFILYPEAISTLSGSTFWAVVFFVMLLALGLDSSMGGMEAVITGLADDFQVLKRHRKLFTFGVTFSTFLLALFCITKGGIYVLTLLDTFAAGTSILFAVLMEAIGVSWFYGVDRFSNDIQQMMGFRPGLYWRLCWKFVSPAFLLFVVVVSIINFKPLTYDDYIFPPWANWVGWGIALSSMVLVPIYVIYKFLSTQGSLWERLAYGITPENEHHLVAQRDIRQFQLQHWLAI

Cc1ccc(Cl)c(OC(c2cc(F)cc(F)c2)C2CCNC2)c1F (stereo not drawn) [41-8]
Ki (hNET; hNET binding): 0.398 nM
SERT Ki/NET Ki (hSERT; [1]): 7.9

Cc1cccc(O[C@@H](c2ccccc2)[C@H]2CCNC2)c1C [Compound 25-24]
Ki (hNET; [2]): 2.51 nM
SERT Ki/NET Ki (hSERT; [3]): 0.3

Cc1ccc(Cl)c(OC(c2cc(F)cc(F)c2)C2CCNC2)c1Cl (racemic) [41-26]
Ki (hNET; hNET binding): 0.501 nM
SERT Ki/NET Ki (hSERT; [1]): 1.3

Fc1cc(F)c(Cl)c(O[C@@H](c2ccccc2)[C@H]2CCNC2)c1 [Ex. 8-1, (S)-3-[(R)-(2-Chloro-3,5-difluorophenoxy)phenylmethyl]pyrrolidine]
Ki (hNET; hNET binding): 2 nM
SERT Ki/NET Ki (hSERT; [1]): 2.5

CCOc1ccccc1OC(c1ccccc1)C1CCNC1 (stereo not drawn) [Ex. 5, 3-[(2-Ethoxyphenoxy)phenylmethyl]pyrrolidine]
Ki (hNET; [2]): 1.26 nM
SERT Ki/NET Ki (hSERT; [3]): 32

Cc1ccc(F)cc1OC(c1ccccc1)C1CCNC1 (stereo not drawn) [29-15]
Ki (hNET; hNET binding assay): 3.98 nM
SERT Ki/NET Ki (hSERT; [4]): 1.3

Fc1ccc(Cl)c(F)c1OC(c1ccccc1)C1CCNC1 (stereo not drawn) [40-14]
Ki (hNET; hNET binding): 0.501 nM
SERT Ki/NET Ki (hSERT; [1]): 0.4

CCOC(=O)c1cc(Cl)ccc1O[C@@H](c1ccccc1)[C@H]1CCNC1 [27-36]
Ki (hNET; hNET binding assay): 3.98 nM
SERT Ki/NET Ki (hSERT; [4]): 0.6

COc1ccc(F)cc1O[C@@H](c1ccccc1)[C@H]1CCNC1 [29-24]
Ki (hNET; hNET binding assay): 1 nM
SERT Ki/NET Ki (hSERT; [4]): 34

CCC(=O)c1ccccc1OC(c1ccccc1)C1CCNC1 (stereo not drawn) [Compound 19-27]
Ki (hNET; [2]): 2 nM
SERT Ki/NET Ki (hSERT; [3]): 100

NC(=O)c1cccc(C(Oc2c(F)cc(F)cc2F)C2CCNC2)c1 (stereo not drawn) [45-5]
Ki (hNET; [5]): 7.94 nM
SERT Ki/NET Ki (hSERT; [6]): 3.2

Cc1c(F)cccc1OC(c1ccccc1)C1CCNC1 (racemic) [Compound 25-17]
Ki (hNET; [2]): 2.51 nM
SERT Ki/NET Ki (hSERT; [3]): 0.2

Cc1ccc(OC(c2ccccc2)C2CCNC2)c(Cl)c1 (stereo not drawn) [27-10]
Ki (hNET; hNET binding assay): 0.631 nM
SERT Ki/NET Ki (hSERT; [4]): 0.8

Fc1cc(F)cc(C(Oc2cc(F)cc(F)c2F)C2CCNC2)c1 (stereo not drawn) [39-3]
Ki (hNET; hNET binding): 6.31 nM
SERT Ki/NET Ki (hSERT; [1]): 0.4

FC(F)(F)Oc1ccccc1OC(c1ccccc1)C1CCNC1 (stereo not drawn) [Compound 19-18]
Ki (hNET; [2]): 1.26 nM
SERT Ki/NET Ki (hSERT; [3]): 20

Cc1ccc(F)c(O[C@@H](c2ccccc2)[C@H]2CCNC2)c1F [40-26]
Ki (hNET; hNET binding): 0.251 nM
SERT Ki/NET Ki (hSERT; [1]): 20

COc1ccc(F)c(Cl)c1O[C@@H](c1ccccc1)[C@H]1CCNC1 [40-22]
Ki (hNET; hNET binding): 0.631 nM
SERT Ki/NET Ki (hSERT; [1]): 13

COc1ccccc1O[C@H](c1cccc(Cl)c1)[C@@H]1CCNC1 (racemic) [Compound 20-20]
Ki (hNET; [2]): 2.51 nM
SERT Ki/NET Ki (hSERT; [3]): 13

Fc1c(Cl)ccc(OC(c2ccccc2)C2CCNC2)c1Cl (stereo not drawn) [36-10]
Ki (hNET; hNET binding): 3.16 nM
SERT Ki/NET Ki (hSERT; [1]): 0.1

Fc1cccc(C(Oc2cccc(Cl)c2)C2CCNC2)c1 (stereo not drawn) [Compound 22-3]
Ki (hNET; [2]): 7.94 nM
SERT Ki/NET Ki (hSERT; [3]): 0.1

Cc1ccc(F)c(O[C@H](c2ccccc2)[C@@H]2CCNC2)c1Cl [40-29]
Ki (hNET; hNET binding): 0.2 nM
SERT Ki/NET Ki (hSERT; [1]): 0.4

COc1cccc(C(Oc2cccc(Cl)c2Cl)C2CCNC2)c1 (stereo not drawn) [Compound 26-6]
Ki (hNET; hNET binding assay): 3.98 nM
SERT Ki/NET Ki (hSERT; [4]): 0.1

COc1cccc(F)c1OC(c1ccccc1)C1CCNC1 (stereo not drawn) [31-15]
Ki (hNET; hNET binding assay): 2 nM
SERT Ki/NET Ki (hSERT; [4]): 2

CC(C)c1ccccc1OC(c1ccccc1)C1CCNC1 (stereo not drawn) [Compound 19-12]
Ki (hNET; [2]): 2 nM
SERT Ki/NET Ki (hSERT; [3]): 16

Cc1ccc(F)c(OC(c2cc(F)cc(F)c2)C2CCNC2)c1Cl (stereo not drawn) [41-28]
Ki (hNET; hNET binding): 0.316 nM
SERT Ki/NET Ki (hSERT; [1]): 6.3

Cc1ccc(F)c(OC(c2ccccc2)C2CCNC2)c1F (stereo not drawn) [40-25]
Ki (hNET; hNET binding): 0.501 nM
SERT Ki/NET Ki (hSERT; [1]): 2

COC(=O)c1cc(F)cc(F)c1O[C@@H](c1ccccc1)[C@H]1CCNC1 [44-28]
Ki (hNET; [5]): 1 nM
SERT Ki/NET Ki (hSERT; [6]): 2.5

CC(=O)c1c(F)cccc1OC(c1ccccc1)C1CCNC1 (stereo not drawn) [Compound 25-30]
Ki (hNET; [2]): 3.16 nM
SERT Ki/NET Ki (hSERT; [3]): 10

COc1cc(Cl)c(F)cc1OC(c1cc(F)cc(F)c1)C1CCNC1 (stereo not drawn) [43-2]
Ki (hNET; hNET binding): 2 nM
SERT Ki/NET Ki (hSERT; [1]): 1.3

COc1ccc(F)c(OC(c2ccccc2)C2CCNC2)c1Cl (stereo not drawn) [40-35]
Ki (hNET; hNET binding): 0.398 nM
SERT Ki/NET Ki (hSERT; [1]): 0.3

Cc1cccc(Cl)c1OC(c1ccccc1)C1CCNC1 (stereo not drawn) [31-11]
Ki (hNET; hNET binding assay): 2 nM
SERT Ki/NET Ki (hSERT; [4]): 1.3

Fc1cccc(OC(c2ccccc2)C2CCNC2)c1 (stereo not drawn) [Compound 21-1]
Ki (hNET; [2]): 3.98 nM
SERT Ki/NET Ki (hSERT; [3]): 1

Cc1cc(F)cc(C(Oc2ccc(Cl)cc2F)C2CCNC2)c1 (stereo not drawn) [28-13]
Ki (hNET; hNET binding assay): 5.01 nM
SERT Ki/NET Ki (hSERT; [4]): 0.5

CC(=O)c1cc(F)cc(F)c1O[C@@H](c1ccccc1)[C@H]1CCNC1 [44-6]
Ki (hNET; [5]): 1.58 nM
SERT Ki/NET Ki (hSERT; [6]): 13

Cc1cccc(F)c1O[C@@H](c1ccccc1)[C@H]1CCNC1 [31-7]
Ki (hNET; hNET binding assay): 0.2 nM
SERT Ki/NET Ki (hSERT; [4]): 5

Fc1cc(Cl)cc(C(Oc2ccc(Cl)cc2F)C2CCNC2)c1 (stereo not drawn) [28-11]
Ki (hNET; hNET binding assay): 2.51 nM
SERT Ki/NET Ki (hSERT; [4]): 0.8
